The record followed here is US20120167671A1, “METHOD AND APPARATUS FOR TESTING TRANSDERMAL MEDICAMENTS” (EGIS GYOGYSZERGYAR NYILVANOSAN MUKODO RESZVENYTARSASAG, priority 2009, published 2012).

This series in a line: Membrane penetration testing of piroxicam-containing cream, human skin membrane, test series (II). To be noted: 1% piroxicam cream, 34° C., no air flow. It counts as in vitro ADME. The method, then: In the test, the acceptor phase comprises 0.9 weight % sodium chloride solution. The flow rate of the acceptor phase is 0.3 ml/min. During the first test series (I), a cellophane membrane, during the second test series (II), a human skin membrane was used. Temperature of the cell was kept at 34° C. During both test series, the cell was exposed to natural sunlight. No air flow was applied. The membrane was allowed to stabilize for 60 minutes. After the stabilization period, 300 to 400 mg of test preparation measured by analytical precision are applied to the membrane homogeneously in 2-3 seconds. The flow of the acceptor phase is resumed and effluent fractions for periods of 30 minute each are collected. […] The high-performance liquid chromatographic analysis is carried out using external standard method in a reversed phase system. The separation is carried out using a Nucleosil C18 (250 mm×4.6 mm i.d.) column and a buffer-acetonitrile-methanol (1000:660:340, v/v/v) mobile phase. The separation is performed at the temperature of 40° C. Flow rate of the mobile phase is 1.0 ml/min. Detection is carried out by ultraviolet photodiode array detector in the wavelength range of 250 to 450 nm.

Take `CN1C(C(=O)Nc2ccccn2)=C(O)c2ccccc2S1(=O)=O` [piroxicam]: the “Cumulative amount of dissolved piroxicam, % Series (II)” value (from here on “Cumulative amount … % Series (II)”) by setting is: (fraction 1, 0-30 min) 0.00%; (fraction 2, 30-60 min) 0.00%; (fraction 3, 60-90 min) 0.00%; (fraction 4, 90-120 min) 0.00%; (fraction 5, 120-150 min) 0.01%; (fraction 6, 150-180 min) 0.02%. In addition, the “Cumulative amount … % Series (II)” value (fraction 7, 180-210 min) is listed as 0.02%; the “Cumulative amount … % Series (II)” value (fraction 8, 210-240 min) stood at 0.03%; the “Cumulative amount … % Series (II)” value (fraction 9, 240-270 min) came to 0.04%; the “Cumulative amount … % Series (II)” value (fraction 10, 270-300 min) is 0.05%; the “Cumulative amount … % Series (II)” value (fraction 11, 300-330 min) is reported as 0.05%; the “Cumulative amount … % Series (II)” value (fraction 12, 330-360 min) is recorded as 0.06%.
